Data reported in patent US8883766B2, “Ion channel modulators and methods of use” (Vertex Pharmaceuticals Incorporated, priority 2007, dated 2014).

Molecular target: T1, NaV1.3 (Homo sapiens, UniProt Q9NY46)
T1 construct: expressed in transfected cells
Assay: VIPR optical membrane potential assay with electrical stimulation, HEK293 cells stably expressing NaV1.3
Type: cell-based
Conditions: compound activity for the NaV1.3 receptors
Experimental: Compounds of the invention are useful as antagonists of voltage-gated sodium ion channels. Antagonist properties of test compounds were assessed as follows. Cells expressing the NaV of interest were placed into microtiter plates. After an incubation period, the cells were stained with fluorescent dyes sensitive to the transmembrane potential. The test compounds were added to the microtiter plate. The cells were stimulated with either chemical or electrical means to evoke a NaV dependent membrane potential change from unblocked channels, which was detected and measured with trans-membrane potential-sensitive dyes. Antagonists were detected as a decreased membrane potential response to the stimulus. The optical membrane potential assay utilized voltage-sensitive FRET sensors described by Gonzalez and Tsien (See, Gonzalez, J. E. and R. Y. Tsien (1995) “Voltage sensing by fluorescence resonance energy transfer in single cells” Biophys J 69(4): 1272-80, and Gonzalez, J. E. and R. Y. Tsien (1997) “Improved indicators of cell membrane potential that use fluorescence resonance energy transfer” Chem Biol 4(4): 269-77) in combination with instrumentation for measuring fluorescence changes such as the Voltage/Ion Probe Reader (VIPR®) (See, Gonzalez, J. E., K. Oades, et al. (1999) “Cell-based assays and instrumentation for screening ion-channel targets” Drug Discov Today 4(9): 431-439).
The following is an example of how NaV1.3 inhibition activity is measured using the optical membrane potential method #2. Other subtypes are performed in an analogous mode in a cell line expressing the NaV of interest.
HEK293 cells stably expressing NaV1.3 are plated into 96-well microtiter plates. After an appropriate incubation period, the cells are stained with the voltage sensitive dyes CC2-DMPE/DiSBAC2(3) as follows.
2×CC2-DMPE=20 μM CC2-DMPE: 10 mM CC2-DMPE is vortexed with an equivalent volume of 10% pluronic, followed by vortexing in required amount of HBSS containing 10 mM HEPES. Each cell plate will require 5 mL of 2×CC2-DMPE. 50 μL of 2×CC2-DMPE is added to wells containing washed cells, resulting in a 10 μM final staining concentration. The cells are stained for 30 minutes in the dark at RT.
2×DISBAC2(3) with ABSC1=6 μM DISBAC2(3) and 1 mM ABSC1: The required amount of 10 mM DISBAC2(3) is added to a 50 ml conical tube and mixed with 1 μL 10% pluronic for each mL of solution to be made and vortexed together. Then HBSS/HEPES is added to make up 2× solution. Finally, the ABSC1 is added.
The 2×DiSBAC2(3) solution can be used to solvate compound plates. Note that compound plates are made at 2× drug concentration. Wash stained plate again, leaving residual volume of 50 μL. Add 50 μL/well of the 2×DiSBAC2(3) w/ ABSC1. Stain for 30 minutes in the dark at RT.
The electrical stimulation instrument and methods of use are described in ION Channel Assay Methods PCT/US01/21652, herein incorporated by reference. The instrument comprises a microtiter plate handler, an optical system for exciting the coumarin dye while simultaneously recording the coumarin and oxonol emissions, a waveform generator, a current- or voltage-controlled amplifier, and a device for inserting electrodes in well. Under integrated computer control, this instrument passes user-programmed electrical stimulus protocols to cells within the wells of the microtiter plate.
Use the current-controlled amplifier to deliver stimulation wave pulses for 3 s. Two seconds of pre-stimulus recording are performed to obtain the un-stimulated intensities. Five seconds of post-stimulation recording are performed to examine the relaxation to the resting state.
Data are analyzed and reported as normalized ratios of background-subtracted emission intensities measured in the 460 nm and 580 nm channels. Background intensities are then subtracted from each assay channel. […]

T1 sequence (Q9NY46 whole entry): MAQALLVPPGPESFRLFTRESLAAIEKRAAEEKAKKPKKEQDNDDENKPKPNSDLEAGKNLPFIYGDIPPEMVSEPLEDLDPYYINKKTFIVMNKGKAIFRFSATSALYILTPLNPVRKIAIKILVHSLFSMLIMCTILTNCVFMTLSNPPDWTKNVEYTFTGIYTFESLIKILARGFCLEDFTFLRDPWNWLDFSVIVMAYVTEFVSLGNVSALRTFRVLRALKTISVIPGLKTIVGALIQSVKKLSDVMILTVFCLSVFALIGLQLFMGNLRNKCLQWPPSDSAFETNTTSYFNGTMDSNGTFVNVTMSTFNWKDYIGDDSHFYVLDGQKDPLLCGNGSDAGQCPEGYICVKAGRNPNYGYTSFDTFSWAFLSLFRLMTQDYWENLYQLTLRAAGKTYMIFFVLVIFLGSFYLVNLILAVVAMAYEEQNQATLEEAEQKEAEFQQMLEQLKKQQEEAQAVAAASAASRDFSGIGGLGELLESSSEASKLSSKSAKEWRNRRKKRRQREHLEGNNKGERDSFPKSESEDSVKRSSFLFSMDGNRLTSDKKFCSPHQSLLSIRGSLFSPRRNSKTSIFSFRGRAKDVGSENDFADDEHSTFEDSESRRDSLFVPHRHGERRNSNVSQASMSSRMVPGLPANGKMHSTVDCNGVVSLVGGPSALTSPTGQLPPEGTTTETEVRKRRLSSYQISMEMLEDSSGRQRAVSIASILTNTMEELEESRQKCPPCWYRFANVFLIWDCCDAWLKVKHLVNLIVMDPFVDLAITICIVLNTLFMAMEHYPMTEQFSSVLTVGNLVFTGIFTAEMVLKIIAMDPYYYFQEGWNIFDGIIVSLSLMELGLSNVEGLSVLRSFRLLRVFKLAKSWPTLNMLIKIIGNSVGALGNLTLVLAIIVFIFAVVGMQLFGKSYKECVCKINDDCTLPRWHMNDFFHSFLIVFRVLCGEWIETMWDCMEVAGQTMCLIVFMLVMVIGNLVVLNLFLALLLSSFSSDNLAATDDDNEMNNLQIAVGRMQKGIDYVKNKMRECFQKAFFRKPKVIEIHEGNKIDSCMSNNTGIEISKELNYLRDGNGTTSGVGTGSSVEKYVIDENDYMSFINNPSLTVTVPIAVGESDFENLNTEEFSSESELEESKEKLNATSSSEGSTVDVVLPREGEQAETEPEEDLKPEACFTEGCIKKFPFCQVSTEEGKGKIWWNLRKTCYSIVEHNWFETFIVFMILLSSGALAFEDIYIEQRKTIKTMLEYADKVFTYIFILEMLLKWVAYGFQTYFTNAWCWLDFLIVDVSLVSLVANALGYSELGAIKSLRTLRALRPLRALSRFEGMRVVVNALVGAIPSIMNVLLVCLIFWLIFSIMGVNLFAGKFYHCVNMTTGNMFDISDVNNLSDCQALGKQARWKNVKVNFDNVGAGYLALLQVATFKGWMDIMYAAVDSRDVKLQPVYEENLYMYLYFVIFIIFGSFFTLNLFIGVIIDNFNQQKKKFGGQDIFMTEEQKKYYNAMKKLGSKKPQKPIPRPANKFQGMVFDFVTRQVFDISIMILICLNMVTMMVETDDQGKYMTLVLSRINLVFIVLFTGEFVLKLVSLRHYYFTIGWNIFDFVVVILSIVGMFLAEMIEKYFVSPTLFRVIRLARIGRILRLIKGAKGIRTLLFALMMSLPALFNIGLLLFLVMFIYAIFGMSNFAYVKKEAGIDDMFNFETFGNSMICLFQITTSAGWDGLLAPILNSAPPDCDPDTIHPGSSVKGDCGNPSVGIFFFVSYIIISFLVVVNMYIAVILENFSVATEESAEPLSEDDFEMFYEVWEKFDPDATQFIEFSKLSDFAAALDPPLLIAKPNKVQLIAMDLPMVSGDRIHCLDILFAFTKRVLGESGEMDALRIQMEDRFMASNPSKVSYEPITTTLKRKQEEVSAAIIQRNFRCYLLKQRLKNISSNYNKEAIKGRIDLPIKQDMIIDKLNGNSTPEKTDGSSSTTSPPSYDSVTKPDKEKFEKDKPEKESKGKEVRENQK

SMILES	IC50 [µM]
COC(=O)NS(=O)(=O)c1ccc(NC(=O)C(C)Oc2cccc(Cl)c2Cl)cc1 (stereo in doubt) [Compound 58, (R)-methyl 4-(2,3-dichlorophenoxy)propanamido) phenylsulfonylcarbamate]	> 5
COC(=O)NS(=O)(=O)c1ccc(NC(=O)CCn2ccc3cccc(Cl)c32)cc1 [Compound 1]	> 5
COC(=O)NS(=O)(=O)c1ccc(NC(=O)NC2Cc3ccccc3C2)cc1 [Compound 2]	> 5
COC(=O)NS(=O)(=O)c1ccc(NC(=O)COc2ccc(F)c(Cl)c2)cc1 [Compound 3]	> 5
NC(=O)NS(=O)(=O)c1ccc(NC(=O)CCn2ccc3cc(Cl)ccc32)cc1 [Compound 4]	> 5
COC(=O)NS(=O)(=O)c1ccc(NC(=O)[C@H](CC(C)C)N2CCCc3cc(Cl)ccc32)cc1 [Compound 5]	> 5
COC(=O)NS(=O)(=O)c1ccc(NC(=O)[C@@H](C)N2CCCc3cc(Cl)ccc32)cc1 [Compound 6, (R)-methyl 4-(2-(6-chloro-3,4-dihydroquinolin-1(2H)-yl)propanamido)phenylsulfonylcarbamate]	< 2
COC(=O)NS(=O)(=O)c1ccc(NC(=O)Cn2ccc3ccc(OC)cc32)cc1 [Compound 7]	> 5
COC(=O)NS(=O)(=O)c1ccc(NC(=O)Cn2ccc3cc(F)c(F)cc32)cc1 [Compound 8]	> 5
COC(=O)NS(=O)(=O)c1ccc(NC(=O)c2ccccc2)cc1 [Compound 9]	> 5
COC(=O)NS(=O)(=O)c1ccc(NC(=O)[C@@H](C(C)C)N2CCCc3cc(Cl)ccc32)cc1 [Compound 10]	2 to 5
C[C@H](C(=O)Nc1ccc(S(=O)(=O)NC(=O)C2CCCC2)cc1)n1ccc2c(F)cccc21 [Compound 11, (R)—N-(4-(2-(4-fluoro-1H indol-1-yl)propanamido)phenylsulfonyl)cyclopentanecarboxamide]	> 5
COC(=O)NS(=O)(=O)c1ccc(NC(=O)Cn2cc(C)c3ccccc32)cc1 [Compound 12]	> 5
C[C@H](C(=O)Nc1ccc(S(=O)(=O)NC(=O)CC(C)(C)C)cc1)n1ccc2c(F)cccc21 [Compound 13]	> 5
COC(=O)NS(=O)(=O)c1ccc(NC(=O)Cn2ccc3cc(C)ccc32)cc1 [Compound 14]	> 5
COC(=O)NS(=O)(=O)c1ccc(NC(=O)c2cc3c(F)cccc3[nH]2)cc1 [Compound 15]	> 5
COC(=O)NS(=O)(=O)c1ccc(NC(=O)[C@@H](C)n2ccc3ccc(Cl)cc32)cc1 [Compound 16]	2 to 5
COC(=O)NS(=O)(=O)c1ccc(NC(=O)[C@H](C)n2ccc3c(F)cccc32)cc1 [Compound 17]	> 5
COC(=O)NS(=O)(=O)c1ccc(NC(=O)c2cc3c(F)cc(F)cc3[nH]2)cc1 [Compound 18]	> 5
COC(=O)NS(=O)(=O)c1ccc(NC(=O)Cn2cc(C#N)c3ccccc32)cc1 [Compound 19]	> 5
COC(=O)NS(=O)(=O)c1ccc(NC(=O)C(C)n2ccc3cc(Cl)ccc32)cc1 (stereo not drawn) [Compound 20]	2 to 5
C[C@H](C(=O)Nc1ccc(S(=O)(=O)NC(=O)C2CC2)cc1)n1ccc2c(F)cccc21 [Compound 21]	> 5
COC(=O)NS(=O)(=O)c1ccc(NC(=O)[C@@H](C)N2CCCc3cc(Cl)c(C)cc32)cc1 [Compound 22]	< 2
COC(=O)NS(=O)(=O)c1ccc(NC(=O)[C@@H](CC(C)C)n2ccc3c(F)cccc32)cc1 [Compound 23, (R)-methyl 4-(2-(4-fluoro-1H-indol-1-yl)-4-methylpentanamido) phenylsulfonylcarbamate]	< 2
COC(=O)NS(=O)(=O)c1ccc(NC(=O)[C@H](C(C)C)N2CCCc3cc(Cl)ccc32)cc1 [Compound 24]	> 5
COC(=O)NS(=O)(=O)c1ccc(NC(=O)[C@H](C)n2ccc3ccc(C(F)(F)F)cc32)cc1 [Compound 25]	> 5

SMILES	IC50 [µM]
COC(=O)NS(=O)(=O)c1ccc(NC(=O)Cn2ccc3cc(Cl)ccc32)cc1 [Compound 26]	> 5
COC(=O)NS(=O)(=O)c1ccc(NC(=O)Cn2ccc3cc(F)ccc32)cc1 [Compound 27]	> 5
COC(=O)NS(=O)(=O)c1ccc(NC(=O)Cn2ccc3cccc(Cl)c32)cc1 [Compound 28]	> 5
C[C@H](C(=O)Nc1ccc(S(=O)(=O)NC(=O)Oc2ccc(F)cc2)cc1)n1ccc2c(F)cccc21 [Compound 29]	> 5
COC(=O)NS(=O)(=O)c1ccc(NC(=O)NCc2ccc(Cl)c(Cl)c2)cc1 [Compound 30, methyl 4-(3(3,4-dichlorobenzyl)ureido)phenylsulfonylcarbamate]	> 5
CNC(=O)NS(=O)(=O)c1ccc(NC(=O)[C@@H](C)n2ccc3c(F)cccc32)cc1 [Compound 31, (R)-2-(4-fluoro-1H indol-1-yl)-N-(4-(N-(methylcarbamoyl)sulfamoyl)phenyl)propanamide]	> 5
COC(=O)NS(=O)(=O)c1ccc(C2CCN(C(=O)Cn3ccc4ccc(Cl)cc43)CC2)cc1 [Compound 32]	> 5
COC(=O)NS(=O)(=O)c1ccc(NC(=O)Cn2c(C)cc3cc(Cl)ccc32)cc1 [Compound 33]	> 5
COC(=O)NS(=O)(=O)c1ccc(NC(=O)[C@@H](C)n2ccc3c(F)cccc32)cc1 [Compound 34]	< 2
COC(=O)NS(=O)(=O)c1ccc(NC(=O)C(C)Oc2ccc(Cl)cc2C)cc1 (stereo not drawn) [Compound 35]	> 5
COC(=O)NS(=O)(=O)c1ccc(NC(=O)[C@@H](C)n2ccc3cccc(F)c32)cc1 [Compound 36]	> 5
COC(=O)NS(=O)(=O)c1ccc(NC(=O)CCCOc2ccc(Cl)cc2Cl)cc1 [Compound 37]	> 5
COC(=O)NS(=O)(=O)c1ccc(NC(=O)C2(c3ccc4c(c3)OCO4)CC2)cc1 [Compound 38]	> 5
COC(=O)NS(=O)(=O)c1ccc(NC(=O)Cn2ccc3ccc(C(F)(F)F)cc32)cc1 [Compound 39]	> 5
COC(=O)NS(=O)(=O)c1ccc(NC(=O)[C@@H](C)n2ccc3ccccc32)cc1 [Compound 40]	2 to 5
CCOC(=O)NS(=O)(=O)c1ccc(N2CCN(C(=O)[C@@H](C)N3CCCc4cc(F)ccc43)CC2)cc1 [Compound 41, (R)-ethyl 4-(4-(2-(6-fluoro-3,4-dihydroquinolin-1(2H)-yl)propanoyl)piperazin-1-yl)phenylsulfonylcarbamate]	> 5
C[C@H](C(=O)Nc1ccc(S(=O)(=O)NC(=O)C2CCC2)cc1)n1ccc2c(F)cccc21 [Compound 42]	> 5
CCOC(=O)NS(=O)(=O)c1ccc(NC(=O)[C@@H](C)n2ccc3c(F)cccc32)cc1 [Compound 43, (R)-Ethyl 4-(2-(4-fluoro-1H-indol-1-yl)propanamido)phenylsulfonyl-carbamate]	> 5
COC(=O)NS(=O)(=O)c1ccc(NC(=O)Cn2ccc3c(C#N)cccc32)cc1 [Compound 44]	> 5
CC(=O)NS(=O)(=O)c1ccc(N)cc1 [Compound 45]	> 5
CCC(=O)NS(=O)(=O)c1ccc(NC(=O)C(C)n2ccc3ccccc32)cc1 (stereo not drawn) [Compound 46]	> 5
COC(=O)NS(=O)(=O)c1ccc(NC(=O)[C@@H](C)N2CCCc3ccccc32)cc1 [Compound 47]	> 5
COC(=O)NS(=O)(=O)c1ccc(NC(=O)CCc2ccc(OC)cc2)cc1 [Compound 48]	> 5
COc1ccccc1C(=O)NS(=O)(=O)c1ccc(NC(=O)COc2ccnc3c(C(F)(F)F)cccc23)cc1 [Compound 49]	> 5
COC(=O)NS(=O)(=O)c1ccc(N2CCN(C(=O)[C@@H](C)N3CCCc4cc(Cl)ccc43)CC2)cc1 [Compound 50]	> 5
